Measured values reported in ChEMBL document CHEMBL5331114, “Discovery of Pyxinol Amide Derivatives Bearing Amino Acid Residues as Nonsubstrate Allosteric Inhibitors of P-Glycoprotein-Mediated Multidrug Resistance” (J Med Chem, 2023).

Assays:
[1] = Cytotoxicity against human KBV Cells assessed as cell survival rate at 10 uM incubated for 72 hrs by MTT assay; assay type: functional; details: read-out: Survival
[2] = Reversal of multidrug resistance in human KBV Cells assessed as reversal fold of paclitaxel IC50 at 10 uM incubated for 72 hrs in presence of paclitaxel by MTT assay; assay type: functional
[3] = Reversal of multidrug resistance in human KBV Cells assessed as reversal fold of paclitaxel IC50 at 5 uM incubated for 72 hrs in presence of paclitaxel by MTT assay; assay type: functional
[4] = Reversal of multidrug resistance in human KBV Cells assessed as increase in PTX-induced cytotoxicity by measuring cell survival rate at 10 uM incubated for 72 hrs in presence of paclitaxel by MTT assay relative to control; assay type: functional; details: read-out: Survival
[5] = Reversal of multidrug resistance in human KBV Cells assessed as increase in PTX-induced cytotoxicity by measuring cell survival rate at 5 uM incubated for 72 hrs in presence of paclitaxel by MTT assay relative to control; assay type: functional; details: read-out: Survival
[6] = Drug accumulation in human KB cells at 10 uM incubated for 4 hrs by LC-MS/MS analysis; assay type: ADME, cell-based
[7] = Drug accumulation in human KBV cells at 10 uM incubated for 4 hrs by LC-MS/MS analysis; assay type: ADME, cell-based
[8] = Induction of cell cycle arrest in human KBV cells assessed as accumulation of cells at G2-M phase at 10 uM incubated for 24 hrs by flow cytometry analysis (reference value: 24.94 +/- 0.21%); assay type: functional
[9] = Induction of Ptx-mediated cell cycle arrest in human KBV cells assessed as accumulation of cells at Sub-G1 phase at 10 uM incubated for 24 hrs in presence of paclitaxel by flow cytometry analysis (reference value: 1.21 +/- 0.3%); assay type: functional
[10] = Induction of Ptx-mediated cell cycle arrest in human KBV cells assessed as accumulation of cells at G2-M phase at 10 uM incubated for 24 hrs in presence of paclitaxel by flow cytometry analysis (Rvb =25.34 +/- 0.92%); assay type: functional
[11] = Induction of Ptx-mediated cell cycle arrest in human KBV cells assessed as accumulation of cells at S phase at 10 uM incubated for 24 hrs in presence of paclitaxel by flow cytometry analysis (Rvb =16.63 +/- 0.4%); assay type: functional
[12] = Induction of cell cycle arrest in human KBV cells assessed as accumulation of cells at G1-G0 phase at 10 uM incubated for 24 hrs by flow cytometry analysis (reference value: 62.34 +/- 0.24%); assay type: functional
[13] = Induction of cell cycle arrest in human KBV cells assessed as accumulation of cells at Sub-G1 phase at 10 uM incubated for 24 hrs by flow cytometry analysis (reference value: 1.24 +/- 0.14%); assay type: functional
[14] = Induction of cell cycle arrest in human KBV cells assessed as accumulation of cells at S phase at 10 uM incubated for 24 hrs by flow cytometry analysis (reference value: 12.42 +/- 0.41%); assay type: functional
[15] = Induction of Ptx-mediated cell cycle arrest in human KBV cells assessed as accumulation of cells at G1-G0 phase at 10 uM incubated for 24 hrs in presence of paclitaxel by flow cytometry analysis (Rvb =57.76 +/- 0.78%); assay type: functional

For `CC(C)(C)OC(=O)N[C@@H](Cc1ccccc1)C(=O)N[C@H]1CC[C@]2(C)[C@H]3C[C@@H](O)[C@@H]4[C@@H]([C@]5(C)CC[C@H](C(C)(C)O)O5)CC[C@@]4(C)[C@]3(C)CC[C@H]2C1(C)C`, the viability at 10 µM [1] was 104%, the “fold change (FC)” value [2] was 82 and the “fold change (FC)” value [3] was 22. For the same molecule, the viability at 10 µM [4] was 24% and the viability at 5 µM [5] was 30%.

In the case of `CC(C)(C)OC(=O)N[C@@H](Cc1ccccc1)C(=O)N[C@H]1CC[C@]2(C)[C@H]3C[C@@H](O)[C@@H]4[C@@H]([C@]5(C)CC[C@@H](C(C)(C)O)O5)CC[C@@]4(C)[C@]3(C)CC[C@H]2C1(C)C`, the viability at 10 µM [1] is reported as 102%, the “fold change (FC)” value [2] is reported as 49 and the “fold change (FC)” value [3] is reported as 21. For the same molecule, the viability at 10 µM [4] was 24% and the viability at 5 µM [5] was 31%.

Work on `CC(C)(C)OC(=O)NCCCCCC(=O)N[C@H]1CC[C@]2(C)[C@H]3C[C@@H](O)[C@@H]4C([C@]5(C)CC[C@H](C(C)(C)O)O5)CC[C@@]4(C)[C@]3(C)CC[C@H]2C1(C)C` (stereo partly drawn) yielded a viability at 10 µM [1] of 98%, a viability at 10 µM [4] of 36% and a viability at 5 µM [5] of 44%. For the same molecule, the Drug uptake [6] was “Not Active” and the Drug uptake [7] was “Not Active”.

`COc1ccc(CCN(C)CCCC(C#N)(c2ccc(OC)c(OC)c2)C(C)C)cc1OC` (stereo not drawn) gave an Activity [8] of 26.78%, an Activity [9] of 8.56% and an Activity [10] of 37.67%. It also gave an Activity [11] of 21.71%, a viability at 10 µM [4] of 41% and an Activity [12] of 58.36%. It also gave an Activity [13] of 1.07%, an Activity [14] of 14.59% and an Activity [15] of 39.76%.

`CC(C)(O)[C@@H]1CC[C@@](C)([C@H]2CC[C@]3(C)[C@@H]2[C@H](O)C[C@@H]2[C@@]4(C)CC[C@H](NC(=O)[C@@H]5CCCN5)C(C)(C)[C@@H]4CC[C@]23C)O1` gave a viability at 10 µM [1] of 78%, a viability at 10 µM [4] of 58% and a viability at 5 µM [5] of 83%.

In the case of `CC(C)(C)OC(=O)N1CCC[C@H]1C(=O)N[C@H]1CC[C@]2(C)[C@H]3C[C@@H](O)[C@@H]4[C@@H]([C@]5(C)CC[C@@H](C(C)(C)O)O5)CC[C@@]4(C)[C@]3(C)CC[C@H]2C1(C)C`, the viability at 10 µM [1] is reported as 111%, the viability at 10 µM [4] is reported as 30% and the viability at 5 µM [5] is reported as 44%.

For `CC(C)(C)OC(=O)C[C@H](NC(=O)OC(C)(C)C)C(=O)N[C@H]1CC[C@]2(C)[C@H]3C[C@@H](O)[C@@H]4[C@@H]([C@]5(C)CC[C@H](C(C)(C)O)O5)CC[C@@]4(C)[C@]3(C)CC[C@H]2C1(C)C`, the viability at 10 µM [1] was 152%, the viability at 10 µM [4] was 28% and the viability at 5 µM [5] was 41%.

With `CC(C)(O)[C@H]1CC[C@@](C)([C@H]2CC[C@]3(C)[C@@H]2[C@H](O)C[C@@H]2[C@@]4(C)CC[C@H](NC(=O)[C@@H](N)Cc5ccccc5)C(C)(C)[C@@H]4CC[C@]23C)O1` the viability at 10 µM [1] was 85%, the “fold change (FC)” value [2] was 321 and the “fold change (FC)” value [3] was 56. For the same molecule, the viability at 10 µM [4] was 29% and the viability at 5 µM [5] was 33%.

For `CC(C)(C)OC(=O)N1CCC[C@H]1C(=O)N[C@H]1CC[C@]2(C)[C@H]3C[C@@H](O)[C@@H]4[C@@H]([C@]5(C)CC[C@H](C(C)(C)O)O5)CC[C@@]4(C)[C@]3(C)CC[C@H]2C1(C)C`, the viability at 10 µM [1] was 155%, the viability at 10 µM [4] was 32% and the viability at 5 µM [5] was 41%.

`CC(C)(O)[C@@H]1CC[C@@](C)([C@H]2CC[C@]3(C)[C@@H]2[C@H](O)C[C@@H]2[C@@]4(C)CC[C@H](OC(=O)[C@@H]5CCCN5)C(C)(C)[C@@H]4CC[C@]23C)O1` showed a viability at 10 µM [1] of 113%, a viability at 10 µM [4] of 116% and a viability at 5 µM [5] of 113%.

In the case of `CC(C)[C@H](N)C(=O)N[C@H]1CC[C@]2(C)[C@H]3C[C@@H](O)[C@@H]4[C@@H]([C@]5(C)CC[C@H](C(C)(C)O)O5)CC[C@@]4(C)[C@]3(C)CC[C@H]2C1(C)C`, the viability at 10 µM [1] is reported as 74%, the “fold change (FC)” value [2] is reported as 46 and the “fold change (FC)” value [3] is reported as 36. The viability at 10 µM [4] was 32% and the viability at 5 µM [5] was 34%.

In the case of `CC(C)(C)OC(=O)C[C@H](NC(=O)OC(C)(C)C)C(=O)N[C@H]1CC[C@]2(C)[C@H]3C[C@@H](O)[C@@H]4[C@@H]([C@]5(C)CC[C@@H](C(C)(C)O)O5)CC[C@@]4(C)[C@]3(C)CC[C@H]2C1(C)C`, the viability at 10 µM [1] is reported as 94%, the “fold change (FC)” value [2] is reported as 130 and the “fold change (FC)” value [3] is reported as 61. The viability at 10 µM [4] was 28%, the viability at 5 µM [5] was 33% and the Drug uptake [6] was “Not Active”. For the same molecule, the Drug uptake [7] was “Not Active”.

With `CC(C)(C)OC(=O)NCCCC[C@H](NC(=O)OC(C)(C)C)C(=O)N[C@H]1CC[C@]2(C)[C@H]3C[C@@H](O)[C@@H]4[C@@H]([C@]5(C)CC[C@H](C(C)(C)O)O5)CC[C@@]4(C)[C@]3(C)CC[C@H]2C1(C)C` the viability at 10 µM [1] was 119%, the viability at 10 µM [4] was 33% and the viability at 5 µM [5] was 47%.

In the case of `CC(C)(C)OC(=O)N[C@@H](Cc1ccc(OC(C)(C)C)cc1)C(=O)N[C@H]1CC[C@]2(C)[C@H]3C[C@@H](O)[C@@H]4[C@@H]([C@]5(C)CC[C@@H](C(C)(C)O)O5)CC[C@@]4(C)[C@]3(C)CC[C@H]2C1(C)C`, the viability at 10 µM [1] is reported as 85%, the “fold change (FC)” value [2] is reported as 209 and the “fold change (FC)” value [3] is reported as 35. The viability at 10 µM [4] was 19%, the viability at 5 µM [5] was 30% and the Drug uptake [6] was “Not Active”. The Drug uptake [7] was “Not Active”.

Molecule `CC(C)(O)[C@H]1CC[C@@](C)([C@H]2CC[C@]3(C)[C@@H]2[C@H](O)C[C@@H]2[C@@]4(C)CC[C@H](OC(=O)[C@@H]5CCCN5)C(C)(C)[C@@H]4CC[C@]23C)O1` has a viability at 10 µM [1] of 108%, a viability at 10 µM [4] of 61% and a viability at 5 µM [5] of 76%.

Molecule `CC(C)(O)[C@@H]1CC[C@@](C)([C@H]2CC[C@]3(C)[C@@H]2[C@H](O)C[C@@H]2[C@@]4(C)CC[C@H](NC(=O)[C@@H](N)CC(=O)O)C(C)(C)[C@@H]4CC[C@]23C)O1` has a viability at 10 µM [1] of 90%, a viability at 10 µM [4] of 88% and a viability at 5 µM [5] of 84%.

With `CC(C)(C)OC(=O)N1CCC[C@H]1C(=O)O[C@H]1CC[C@]2(C)[C@H]3C[C@@H](O)[C@@H]4[C@@H]([C@]5(C)CC[C@H](C(C)(C)O)O5)CC[C@@]4(C)[C@]3(C)CC[C@H]2C1(C)C` the viability at 10 µM [1] was 102%, the viability at 10 µM [4] was 70% and the viability at 5 µM [5] was 111%.

With `CC(C)(C)OC(=O)N1CCC[C@H]1C(=O)O[C@H]1CC[C@]2(C)[C@H]3C[C@@H](O)[C@@H]4[C@@H]([C@]5(C)CC[C@@H](C(C)(C)O)O5)CC[C@@]4(C)[C@]3(C)CC[C@H]2C1(C)C` the viability at 10 µM [1] was 103%, the viability at 10 µM [4] was 35% and the viability at 5 µM [5] was 66%.

In the case of `COc1cc2c(cc1OC)CN(CCc1ccc(NC(=O)c3cc(OC)c(OC)cc3NC(=O)c3cnc4ccccc4c3)cc1)CC2`, the “fold change (FC)” value [2] is reported as 150 and the “fold change (FC)” value [3] is reported as 113.

`CC(C)[C@H](NC(=O)OC(C)(C)C)C(=O)N[C@H]1CC[C@]2(C)[C@H]3C[C@@H](O)[C@@H]4[C@@H]([C@]5(C)CC[C@H](C(C)(C)O)O5)CC[C@@]4(C)[C@]3(C)CC[C@H]2C1(C)C` showed a viability at 10 µM [1] of 114%, a viability at 10 µM [4] of 21% and a viability at 5 µM [5] of 36%.
